Literature values in patent US4847261A, “Alkoxy cycloalkanol esters of dihydrolysergic acid having peripheral serotonin antagonists properties” (Eli Lilly and Company, priority 1988, dated 1989).

Experiments:
5HT2 receptors [1] = conditions: in words; cited from earlier work
5HT2 receptors [2] = conditions: in words; mediated by 5HT2 receptors; cited from earlier work

SMILES: CC(O)C(C)OC(=O)[C@@H]1C[C@@H]2c3cccc4c3c(cn4C(C)C)C[C@H]2N(C)C1 (stereo partly drawn) [LY53857, 1-isopropyl-6-methyl-8β-(1-methyl-2-hydroxy)propoxycarbonyl-5R-ergoline]
- peripheral serotonin antagonist activity among Garbrecht compounds (5HT2 receptors [1]): most active peripheral serotonin antagonist
- antagonism of vascular contraction to serotonin (5HT2 receptors [2]): potent antagonist
